From patent US11773084B1, “4-arylamino-2-(6-indolylamino)pyrimidine compounds as antibacterial agents” (KING FAISAL UNIVERSITY, priority 2023, dated 2023) come the findings set out here.

In brackets after ≈: the same amount, converted by molar mass. Like-named read-outs stand apart in the source and are kept apart here.

Test [1] concerns Enterococcus faecium ATCC 51559 (VRE resistant). The test is described as follows: In vitro antibacterial activity (CLSI M07-A10 dilution MIC). The format is cell-based.
Test [2] deals with Escherichia coli MTCC 443. Described as above. The format is cell-based.
Test [3] concerns Enterococcus faecium ATCC 35667. The description is as above. The conditions noted are these: ATCC35667. The format is cell-based.
Test [4] has as its system Staphylococcus aureus ATCC 29213. Described as above. The format is cell-based. The conditions noted are these: ATCC29213.
Test [5] deals with Staphylococcus aureus ATCC BAA-1556 (MERSA resistant). The test is described as above. The conditions noted are these: ATCCBAA1556. The format is cell-based.
Test [6] concerns Staphylococcus epidermidis. The test is described as above. The format is cell-based.
The subject of test [7] is Klebsiella pneumonia MTCC 618. Described as above. In kind it is cell-based. The conditions noted are these: Klebsiella pneumoniae, MTCC618.
The test system of test [8] is Bacillus subtilis MTCC 441. Described as above. In kind it is cell-based. The conditions noted are these: MTCC441.
The target of another test is T1, DNA gyrase from E. coli (Escherichia coli, UniProt P0AES4+P0AES6).
T1 construct: purchased Inspiralis
The experiment in a line: E. coli DNA gyrase inhibition (Inspiralis assay). The format is biochemical. The protocol: First, the plates were rehydrated with buffer (20 mM Tris-HCl with pH 7.6, 0.01% w/v BSA, 0.05% v/v Tween 20, 137 mM NaCl) and the biotinylated oligonucleotide was then immobilized. After washing off the unbound oligonucleotide, the enzyme test was performed. […] Reaction solutions were incubated at 37° C. for 30 min. After that, the TF buffer (50 mM NaOAc with pH 5.0, 50 mM NaCl and 50 mM MgCl2) was added to terminate the enzymatic reaction. After additional incubation for 30 min at rt, during which biotinoligonucleotide-plasmid triplex was formed, the unbound plasmid was washed off using TF buffer and SybrGOLD in T10 buffer (10 mM Tris HCl with pH 8.0 and 1 mM EDTA) was added. The fluorescence was measured with a microplate reader (BioTek Synergy H4, excitation: 485 nm, emission: 535 nm). […] GraphPad Prism software was used to calculate the IC50 values. The result is given as the average value of three independent measurements.

The test system of test [9] is Mycobacterium tuberculosis H37Rv strain. The experiment in a line: Anti-tubercular alamar blue microplate MIC assay. The conditions noted are these: seven days 37° C. In kind it is cell-based.
Setting [10] is: Escherichia coli MTCC 443 + PABN.

T1 sequence (P0AES4 whole entry, one chain of several): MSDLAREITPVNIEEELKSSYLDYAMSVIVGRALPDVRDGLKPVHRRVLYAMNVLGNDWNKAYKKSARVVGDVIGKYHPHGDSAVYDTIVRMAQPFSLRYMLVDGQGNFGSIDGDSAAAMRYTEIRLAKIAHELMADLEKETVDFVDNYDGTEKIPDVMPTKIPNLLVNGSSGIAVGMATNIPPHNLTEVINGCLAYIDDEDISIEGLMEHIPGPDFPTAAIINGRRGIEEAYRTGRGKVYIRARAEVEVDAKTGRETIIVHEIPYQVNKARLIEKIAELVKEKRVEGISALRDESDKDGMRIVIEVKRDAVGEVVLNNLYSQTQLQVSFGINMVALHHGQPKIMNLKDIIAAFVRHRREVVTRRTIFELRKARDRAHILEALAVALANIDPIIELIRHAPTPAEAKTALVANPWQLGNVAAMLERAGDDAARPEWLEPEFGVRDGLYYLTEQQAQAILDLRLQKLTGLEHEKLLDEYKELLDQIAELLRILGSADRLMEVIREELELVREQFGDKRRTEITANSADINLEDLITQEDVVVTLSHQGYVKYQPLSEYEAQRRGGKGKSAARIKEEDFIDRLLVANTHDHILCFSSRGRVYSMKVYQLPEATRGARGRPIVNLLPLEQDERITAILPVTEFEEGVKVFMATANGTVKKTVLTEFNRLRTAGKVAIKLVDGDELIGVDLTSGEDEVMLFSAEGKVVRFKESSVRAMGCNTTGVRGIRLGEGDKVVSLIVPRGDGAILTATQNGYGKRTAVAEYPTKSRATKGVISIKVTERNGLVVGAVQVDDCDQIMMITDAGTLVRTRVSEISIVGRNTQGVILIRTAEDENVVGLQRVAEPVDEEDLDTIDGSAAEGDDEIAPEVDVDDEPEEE

With `CN[C@H](CC(C)C)C(=O)N[C@H]1C(=O)N[C@@H](CC(N)=O)C(=O)N[C@H]2C(=O)N[C@H]3C(=O)N[C@H](C(=O)N[C@H](C(=O)O)c4cc(O)cc(O)c4-c4cc3ccc4O)[C@H](O)c3ccc(c(Cl)c3)Oc3cc2cc(c3O[C@@H]2O[C@H](CO)[C@@H](O)[C@H](O)[C@H]2O[C@H]2C[C@](C)(N)[C@H](O)[C@H](C)O2)Oc2ccc(cc2Cl)[C@H]1O` [Vancomycin, reference compound], the minimum inhibitory concentration (MIC) – broadly, the least concentration at which growth counts as inhibited – was greater than 128 µg/mL in [1] (Enterococcus faecium); greater than 128 µg/mL in test [2] (setting [10]); greater than 128 µg/mL in test [2] (Escherichia coli, MTCC443); 0.5 µg/mL (≈ 0.345 µM) in [3] (Enterococcus faecium); 1 µg/mL (≈ 0.69 µM) in [4] (Staphylococcus aureus); 1 µg/mL (≈ 0.69 µM) in test [5] (Staphylococcus aureus). The minimum inhibitory concentration (MIC) in test [6] was 1 µg/mL (≈ 0.69 µM); in test [7], greater than 128 µg/mL; in test [8] (Bacillus subtilis) it was 0.5 µg/mL (≈ 0.345 µM).

For `CCCCCN(C)Cc1cc(C(=O)O)ccc1Nc1ccnc(Nc2ccc3cc(C)[nH]c3c2)n1` [Example 8, 3-((methyl(pentyl)amino)methyl)-4-((2-((2-methyl-1H-indol-6-yl)amino)pyrimidin-4-yl)amino)benzoic acid], the half-maximal inhibitory concentration (IC50) (as a rule, the concentration needed to halve the response being measured) on DNA gyrase from E. coli is 315 nM. Also, the MIC is 4 µg/mL (≈ 8.46 µM) in test [1] (Enterococcus faecium ATCC 51559 (VRE resistant), read-out: MIC); 2 µg/mL in test [2] (setting [10]); 32 µg/mL (≈ 67.7 µM) in test [2] (MTCC443, Escherichia coli MTCC 443, read-out: MIC); 2 µg/mL (≈ 4.23 µM) in [3] (Enterococcus faecium ATCC 35667, read-out: MIC); 4 µg/mL (≈ 8.46 µM) in test [4] (Staphylococcus aureus ATCC 29213, read-out: MIC); 4 µg/mL (≈ 8.46 µM) in test [5] (Staphylococcus aureus ATCC BAA-1556 (MERSA resistant), read-out: MIC). The MIC in test [6] (read-out: MIC) worked out at 8 µg/mL (≈ 16.9 µM); in test [7] (Klebsiella pneumonia MTCC 618, read-out: MIC) it was 2 µg/mL (≈ 4.23 µM); in test [8] (Bacillus subtilis MTCC 441, read-out: MIC) it was 2 µg/mL (≈ 4.23 µM). The “anti-mycobacterial activity (MIC)” value in test [9] amounted to 8 micro-g/mL.
